Data published in patent publication US7135182B2, “Inhibition of transglutaminase-mediated microbial interaction with a mammalian host” (priority 1998, dated 2006).

Assays:
[1] = target: T1, guinea pig liver transglutaminase (UniProt P08587); assay: Fluorescence assay of transglutaminase-catalyzed cross-linking of 5-(biotinamido)pentylamine to C. albicans germ tube surfaces; format: biochemical; conditions: C. albicans SC5314 germ tubes; EGTA 20 mM (FIG. 2B)
T1 construct: guinea pig liver transglutaminase (8.5 μg); from tissue; host or cells: guinea pig liver
T1 sequence (P08587 whole entry): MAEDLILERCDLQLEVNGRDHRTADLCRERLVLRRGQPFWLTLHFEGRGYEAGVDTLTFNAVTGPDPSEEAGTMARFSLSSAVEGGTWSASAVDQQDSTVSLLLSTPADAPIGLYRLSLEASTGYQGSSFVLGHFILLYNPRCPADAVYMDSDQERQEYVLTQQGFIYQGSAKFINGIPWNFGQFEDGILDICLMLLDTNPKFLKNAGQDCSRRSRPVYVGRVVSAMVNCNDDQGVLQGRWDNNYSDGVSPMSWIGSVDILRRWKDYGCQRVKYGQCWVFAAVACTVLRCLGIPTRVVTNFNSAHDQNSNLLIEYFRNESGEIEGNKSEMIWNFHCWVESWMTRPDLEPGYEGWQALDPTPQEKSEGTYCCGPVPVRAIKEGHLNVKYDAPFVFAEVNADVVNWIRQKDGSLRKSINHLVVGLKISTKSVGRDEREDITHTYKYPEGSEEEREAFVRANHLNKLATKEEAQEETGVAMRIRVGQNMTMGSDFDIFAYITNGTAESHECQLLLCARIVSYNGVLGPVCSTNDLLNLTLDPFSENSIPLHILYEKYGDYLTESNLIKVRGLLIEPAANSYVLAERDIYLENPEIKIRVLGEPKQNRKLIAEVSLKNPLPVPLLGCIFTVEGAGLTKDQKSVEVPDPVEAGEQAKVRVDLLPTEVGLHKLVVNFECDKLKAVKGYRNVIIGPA
Protocol: To detect germ tube surface proteins serving as glutamine donors in transglutaminase-catalyzed cross-linking reactions, a fluorescence assay using a biotinylated lysine analogue as the primary amine acceptor and liver transglutaminase was developed.
Washed M199-germinated C. albicans cells (10^8/ml), guinea pig liver transglutaminase (8.5 μg), and 5-(biotinamido)pentylamine (30 μM) (Pierce) were incubated in reaction buffer 1 (400 μl) (100 mM Tris-Cl pH 7.5, 5 mM CaCl2, 1 mM DTT, 2 mM EDTA) for 15 minutes at 37° C. Reactions were stopped with EDTA (10 mM), germ tubes were washed with distilled water, spotted onto microscope slides, air dried, incubated with avidin-FITC (1:100) (Zymed) and BSA-rhodamine (1:30) (Difco) in PBS at 37° C., washed and examined by fluorescence microscopy.

[2] = system: adhesion of C. albicans germ tubes (UnoPP-1) to human buccal epithelial cells (BECs); assay: Stabilized (covalent) adhesion of radiolabeled C. albicans germ tubes to human buccal epithelial cells; format: cell-based, Candida albicans
Protocol: Mass conversion of yeasts, radiolabeled with Tran^35S-label (ICN) (5 μCi/ml), to germ tubes (5×10^6/ml) was induced in prewarmed M199 (40 ml) for 2.5 hours at 37° C. No differences in the proportion of (>95%) germ tubes or in germ tube length were seen among strains. Washed germ tubes and BECs from a healthy donor, suspended in 300 μl of reaction buffer 3 (50 mM Tris-Cl pH 7.5, 10 mM CaCl2, 1 mM EDTA, 1 mM DTT), at a germ tube/BEC ratio of 100:1, were mixed, incubated for 1 hour at 37° C. followed by reaction termination with 100 mM EGTA (75 μl). The BEC donors understood the nature of the studies and consented to provide BECs. Radioactivity of BEC fractions was determined by scintillation counting after centrifugation on 50% Percoll gradients, and germ tubes per BEC was determined using the specific activity of each strain. Background counts, determined from gradients with germ tubes only, were less than 6% of counts for germ tube/BEC mixtures and were subtracted from counts of epithelial cell-germ tube mixtures. […]
Radiolabeled germ tubes of the control strain, UnoPP-1, were incubated with BECs at a ratio of 100:1 with or without 5 or 10 mM monodansylcadaverine in reaction buffer 3, supra. […] The cell mixtures were incubated for 1 hour at 37° C., and the number of germ tubes covalently attached to BECs were determined. […]

| SMILES | effect on transglutaminase-mediated fluorescence labelling of germ tubes [1] | stabilized adhesion of UnoPP-1 to BECs with transglutaminase inhibited ([2]; iodoacetamide 10 mM, BECs pretreated 15 minutes, CAH7-1A was 23% of UnoPP-1) | reduction of adhesion of germ tubes to BEC relative to DMSO control ([2]; 5 or 10 mM, UnoPP-1 germ tubes/BEC 100:1, 1 hour at 37° C., covalently attached germ tubes) |
| --- | --- | --- | --- |
| O=C(O)CN(CCOCCOCCN(CC(=O)O)CC(=O)O)CC(=O)O [EGTA] | inhibited |  |  |
| NC(=O)CI [iodoacetamide] | inhibited | low level of stabilized adhesion of CAH7-1A was equivalent to that of UnoPP-1 |  |
| CN(C)c1cccc2c(S(=O)(=O)NCCCCCN)cccc12 [monodansylcadaverine] |  |  | approximately 87% |
